Laboratory results taken from patent US10792274B2, “Dehydroacetic acid (DHAA) and derivative for uses in treating cancer” (Emory University, priority 2016, dated 2020).
pKd: −log10 of the molar value. “Also recorded” adds a separate entry of the source.

Experiments:
[1] = serum and tumor metabolite levels and body weight of xenograft mice; type: in vivo
[2] = tested on: BRAF V600E-expressing human melanoma A375 cells; test: A375 xenograft in nude mice; type: in vivo; settings: for BRAF V600E-MEK1 binding in tumors / cell proliferation rates in tumors (Ki67 IHC staining) / xenograft tumor growth (growth rates, sizes, masses) / phosphorylation of MEK1 and ERK1/2 in tumors: single agent; for xenograft tumor growth (growth rates, sizes, masses): normal diet
[3] = molecular target: T1, BRAF V600E (Homo sapiens, UniProt P15056, V600E); test: thermal melt shift assay, purified recombinant protein; type: binding
Protocol: Arrows in the panel indicate melting temperatures at 0 μM (left) and 400 μM (right).
(§1) Whether functional inhibition of acetoacetate would attenuate BRAF V600E tumor growth was examined. Dehydroacetic acid (DHAA) (FIG. 4A) is an inhibitory homologue of acetoacetate.

[4] = molecular target: BRAF V600E-MEK1 binding (Homo sapiens, UniProt P15056, V600E); test: cell-free in vitro coupled protein-protein binding and kinase assay; type: biochemical; settings: substance alone
Protocol: (§2) Whether DHAA inhibits BRAF V600E directly was examined. […] In contrast, DHAA had no effect on BRAF WT-MEK1 binding or MEK1 phosphorylation in a control experiment using purified BRAF WT incubated with MEK1 in the presence of acetoacetate (FIG. 4I left panel). […] This is physiologically consistent with the acetoacetate levels determined as approximately 300 μM in stable HMGCL knockdown A375 and A2058 cells.

[5] = tested on: diverse BRAF V600E positive or negative human melanoma cells; test: control treatments of melanoma cells; type: cell-based
Protocol: (§3) To exclude potential effects of the lithium ion, a series of experiments were performed using a control salt lithium chloride.
In addition, similar studies were performed to exclude possible effects from the potential degradation product of acetoacetate, acetone.

[6] = molecular target: BRAF V600D-MEK1 binding (Homo sapiens, UniProt P15056, V600D); test: MEK1 binding to BRAF mutants; type: biochemical
[7] = molecular target: BRAF V600R (Homo sapiens, UniProt P15056, V600R); test: 14C-labeled acetoacetate binding assay
Protocol: (§4) BRAF wild type and mutant proteins were incubated with increasing concentrations of ^14C-labeled acetoacetate.
(§5) A series of radiometric metabolite-protein interaction analyses were performed using ^14C labeled acetoacetate incubated with purified BRAF variants in the presence and absence of DHAA.

[8] = molecular target: BRAF V600D (Homo sapiens, UniProt P15056, V600D); test: 14C-labeled acetoacetate binding assay
Protocol: as §4, §5

[9] = molecular target: BRAF V600R-MEK1 binding (Homo sapiens, UniProt P15056, V600R); test: MEK1 binding to BRAF mutants; type: biochemical
[10] = molecular target: T2, FLAG-tagged BRAF V600E (Homo sapiens, UniProt P15056, V600E); test: cellular thermal shift assay, lysates of transfected 293T cells; type: binding; settings: 400 μM
T2 construct: FLAG; expressed in transfected cells; host or cells: 293T cells (lysates)
From the text: as §1

[11] = tested on: diverse BRAF V600E-expressing cells; test: DHAA with or without acetoacetate treatment of cells; type: cell-based; settings: DHAA plus acetoacetate treatment
[12] = molecular target: T3, V600E mutant of an active, truncated C-terminal domain of BRAF (tBRAF, 416-766 aa) (Homo sapiens, UniProt P15056, V600E); test: 14C-labeled acetoacetate binding assay
T3 construct: truncated C-terminal domain of BRAF (tBRAF, 416-766 aa)
Protocol: as §5

[13] = molecular target: T1, BRAF V600E; test: BRAF V600E kinase activity (Vmax and Km), MEK1 as substrate; type: biochemical; settings: acetoacetate binding; MEK1 as substrate
Protocol: as §2

[14] = type: physicochemical
Protocol: as §3

[15] = molecular target: T1, BRAF V600E; test: 14C-labeled acetoacetate binding assay (radiometric metabolite-protein interaction)
Protocol: as §4, §5

[16] = tested on: NRAS Q61K-expressing HMCB cells; test: HMCB xenograft in nude mice; type: in vivo; settings: for BRAF-MEK1 binding in tumors / cell proliferation rates in tumors (Ki67 IHC staining) / phosphorylation of MEK1 and ERK1/2 (MEK-ERK activation) in tumors / xenograft tumor growth (growth rates, sizes, masses): single agent; for xenograft tumor growth (growth rates, sizes, masses): normal diet
[17] = tested on: Me1-ST cells expressing BRAF V600E; test: immortalized melanocyte treatment: proliferation, MEK-ERK activation, BRAF-MEK1 binding; type: cell-based; settings: DHAA plus acetoacetate rescue treatment
[18] = tested on: BRAF V600E-expressing human melanoma A2058 cells; test: A2058 xenograft in nude mice; type: in vivo
From the text: Xenograft tumor growth and in nude mice inoculated with BRAF V600E-positive human melanoma A2058 fed with normal or high-fat diets followed by intraperitoneal injection with DHAA.

[19] = tested on: other BRAF mutants-MEK1 binding; test: MEK1 binding to BRAF mutants; type: biochemical
[20] = chronic injection of acetoacetate or 3HB to nude mice; type: in vivo; settings: chronic injection for 4 weeks
[21] = tested on: control V600A mutant or other clinically reported BRAF mutants including K507E, N581S, D594N, L597Q, K601E, and S616F; test: 14C-labeled acetoacetate binding assay, other BRAF mutants
Protocol: as §4, §5

[22] = acetoacetate injection in mice treated with fluvastatin, niacin or fenofibrate
[23] = increasing concentrations of 14C-labeled acetoacetate
[24] = DHAA plus intraperitoneal acetoacetate

T1 sequence (P15056 whole entry V600E): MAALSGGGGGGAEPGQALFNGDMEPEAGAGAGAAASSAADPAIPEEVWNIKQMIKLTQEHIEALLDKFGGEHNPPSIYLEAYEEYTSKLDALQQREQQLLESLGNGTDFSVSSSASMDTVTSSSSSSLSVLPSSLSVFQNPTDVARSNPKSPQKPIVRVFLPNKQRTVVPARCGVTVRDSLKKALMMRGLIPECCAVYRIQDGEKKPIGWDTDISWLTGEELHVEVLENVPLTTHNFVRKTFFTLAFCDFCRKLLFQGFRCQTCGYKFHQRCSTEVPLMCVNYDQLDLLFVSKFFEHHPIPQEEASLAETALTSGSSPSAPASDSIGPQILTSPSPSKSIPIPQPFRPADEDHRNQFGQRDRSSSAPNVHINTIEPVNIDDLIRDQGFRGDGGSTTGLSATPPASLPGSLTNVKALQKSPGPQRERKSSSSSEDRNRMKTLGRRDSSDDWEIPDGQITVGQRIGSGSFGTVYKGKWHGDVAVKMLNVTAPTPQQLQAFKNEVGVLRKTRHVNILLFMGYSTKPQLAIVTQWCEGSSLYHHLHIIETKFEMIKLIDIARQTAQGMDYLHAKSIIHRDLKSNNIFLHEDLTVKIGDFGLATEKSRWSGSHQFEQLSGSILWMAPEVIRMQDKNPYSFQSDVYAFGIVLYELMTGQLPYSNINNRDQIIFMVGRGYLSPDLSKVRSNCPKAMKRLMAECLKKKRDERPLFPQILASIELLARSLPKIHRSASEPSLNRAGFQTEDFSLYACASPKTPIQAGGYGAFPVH
BRAF V600E-MEK1 binding, sequence (P15056 whole entry V600E): as above
BRAF V600R, sequence (P15056 whole entry V600R): as the sequence (P15056 whole entry V600E) above, with E600R counted along it
BRAF V600D, sequence (P15056 whole entry V600D): as the sequence (P15056 whole entry V600E) above, with E600D counted along it
BRAF V600R-MEK1 binding, sequence (P15056 whole entry V600R): as the sequence (P15056 whole entry V600E) above, with E600R counted along it
BRAF V600R-MEK1 binding, sequence (Q02750 whole entry partner): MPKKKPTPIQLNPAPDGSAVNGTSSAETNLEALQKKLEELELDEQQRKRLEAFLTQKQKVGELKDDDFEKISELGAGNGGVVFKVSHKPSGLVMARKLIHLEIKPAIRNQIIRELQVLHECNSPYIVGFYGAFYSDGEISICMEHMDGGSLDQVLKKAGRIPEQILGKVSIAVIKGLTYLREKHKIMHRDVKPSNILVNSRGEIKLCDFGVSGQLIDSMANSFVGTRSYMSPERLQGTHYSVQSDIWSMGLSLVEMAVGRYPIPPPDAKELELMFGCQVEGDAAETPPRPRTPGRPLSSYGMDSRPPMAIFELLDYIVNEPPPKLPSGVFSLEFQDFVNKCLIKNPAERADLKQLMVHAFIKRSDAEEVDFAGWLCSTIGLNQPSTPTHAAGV
T3 sequence (P15056 416-766 V600E): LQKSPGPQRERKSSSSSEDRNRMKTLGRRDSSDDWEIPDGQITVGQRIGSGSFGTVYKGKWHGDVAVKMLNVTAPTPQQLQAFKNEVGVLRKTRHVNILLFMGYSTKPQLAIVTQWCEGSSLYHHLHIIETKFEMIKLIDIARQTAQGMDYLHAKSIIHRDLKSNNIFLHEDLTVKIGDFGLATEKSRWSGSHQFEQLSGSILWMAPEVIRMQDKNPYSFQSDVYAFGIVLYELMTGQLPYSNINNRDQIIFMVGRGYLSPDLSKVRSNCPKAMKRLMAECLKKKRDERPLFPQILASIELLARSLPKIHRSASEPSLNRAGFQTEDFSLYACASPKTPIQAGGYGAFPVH
T2 sequence (P15056 whole entry V600E): as the sequence (P15056 whole entry V600E) above
BRAF V600D-MEK1 binding, sequence (P15056 whole entry V600D): as the sequence (P15056 whole entry V600E) above, with E600D counted along it
BRAF V600D-MEK1 binding, sequence (Q02750 whole entry partner): as the sequence (Q02750 whole entry partner) above

In the case of `[Cl-].[Li+]` [lithium chloride], the serum cholesterol levels ([1]; effect of treatment) was “nor did it affect”, the “serum levels of 3HB (β-hydroxybutyrate)” value ([1]; effect of treatment) was “nor did it affect” and the “BRAF V600E-MEK1 binding in tumors” value [2] was “nor did it affect”. For the same compound, the “cell proliferation rates in tumors (Ki67 IHC staining)” value (“cell proliferation rates in tumors” for short) [2] was “nor did it affect”, the “xenograft tumor growth (growth rates, sizes, masses)” value (“xenograft tumor growth” for short) [2] was “did not affect tumor growth potential” and the “binding in thermal melt shift assay” value [3] was “did not bind”. For the same compound, the “promotion of association between purified BRAF V600E and MEK1” value [4] was “did not”, the “BRAF V600E-MEK1 binding” value [5] was “did not affect” and the cell proliferation rates [5] was “did not affect”. The “phosphorylation levels of MEK1 or ERK1/2” value [5] was “did not affect”.
For `CC(=O)CC(=O)O` [acetoacetate], the “promotion of MEK1 binding to BRAF V600D with increased MEK1 phosphorylation” value [6] was “promoted MEK1 binding”, the “serum levels of acetoacetate” value ([1]; acetoacetate injection in DHAA-treated A375 xenograft mice) was “increased serum levels of acetoacetate” and the “serum 3HB levels” value [1, 22] was “did not affect 3HB levels”. For the same compound, the serum acetoacetate levels [1, 22] was “rescued the decreased serum acetoacetate levels”, the “serum levels of 3HB (β-hydroxybutyrate)” value ([1]; effect of treatment) was “did not affect serum levels of 3HB” and the “serum levels of acetoacetate” value ([1]; effect of treatment) was “increased serum levels of acetoacetate”. The “binding of 14C-labeled acetoacetate” value [7] was “bound”, the pKd [7, 23] was ~3.95 and the “binding of 14C-labeled acetoacetate” value [8] was “bound”. For the same compound, the pKd [8, 23] was ~4.03, the “promotion of MEK1 binding to BRAF V600R with increased MEK1 phosphorylation” value [9] was “promoted MEK1 binding” and the “binding in cellular thermal shift assay” value [10] was “bound only to BRAF V600E”. For the same compound, the “reversal by acetoacetate injection of DHAA inhibition of BRAF V600E-MEK1 binding in tumors” value [2, 24] was “did not reverse”, the “reversal by acetoacetate injection of DHAA inhibition of MEK1 and ERK1/2 phosphorylation in tumors” value [2, 24] was “did not reverse” and the “reversal by acetoacetate injection of DHAA inhibition of cell proliferation rates (Ki67) in tumors” value [2, 24] was “did not reverse”. The “reversal by acetoacetate injection of fluvastatin- or niacin-attenuated tumor growth” value ([2]; intraperitoneal acetoacetate plus oral fluvastatin or niacin) was “could be reversed”, the “BRAF V600E-MEK1 binding in tumors” value [2] was “enhanced BRAF V600E-MEK1 association” and the “cell proliferation rates in tumors” value [2] was “enhanced cell proliferation rates”. For the same compound, the “phosphorylation of MEK1 and ERK1/2 in tumors” value [2] was “enhanced phosphorylation of MEK1 and ERK1/2”, the “xenograft tumor growth” value [2] was “increased growth rates and masses of xenograft tumors; also recorded: increased tumor sizes; also recorded: selectively promotes” and the “reversal by acetoacetate injection of hypolipidemic agents' inhibitory effects (MEK1/ERK1/2 phosphorylation, BRAF V600E-MEK1 association, Ki67)” value ([2]; tumors) was “effectively reversed”. The “reversal by acetoacetate of DHAA-decreased MEK-ERK activation” value [11] was “could not be reversed”, the “reversal by acetoacetate of DHAA-reduced cell proliferation” value [11] was “could not be reversed” and the “binding of 14C-labeled acetoacetate” value [12] was “specifically bound”. For the same compound, the “Km of BRAF V600E” value [13] was “slightly decreased Km”, the “Vmax of BRAF V600E” value [13] was “increased Vmax” and the “promotion of association between purified BRAF V600E and MEK1” value [4] was “promoted MEK1 binding”. For the same compound, the “stability of anion form relative to acid form” value [14] was “approximately 55 times”, the pKd [15, 23] was ~4.04 and the “binding of 14C-labeled acetoacetate” value ([15]; purified BRAF V600E) was “binds to purified BRAF V600E; also recorded: specifically bound”. For the same compound, the “effect of acetoacetate injection on tumor growth potential” value ([16]; intraperitoneal acetoacetate, fenofibrate study) was “had no effect on tumor growth potential”, the “BRAF-MEK1 binding in tumors” value [16] was “did not affect” and the “cell proliferation rates in tumors” value [16] was “did not affect”. The “phosphorylation of MEK1 and ERK1/2 (MEK-ERK activation) in tumors” value [16] was “did not affect”, the “xenograft tumor growth” value [16] was “had no effect on growth rates or masses of tumor xenografts” and the “reversal by acetoacetate of the inhibitory effect of DHAA on cell proliferation” value [17] was “did not reverse”. The “rescue by acetoacetate injection of fenofibrate-decreased tumor growth” value ([18]; intraperitoneal acetoacetate plus fenofibrate) was “effectively rescued the decreased tumor growth”, the “reversal by acetoacetate injection of hypolipidemic agents' inhibitory effects (MEK1/ERK1/2 phosphorylation, BRAF V600E-MEK1 association, Ki67)” value ([18]; tumors) was “effectively reversed” and the “promotion of MEK1 binding to other BRAF mutants” value [19] was “but not to other BRAF mutants”. For the same compound, the “acetoacetate or 3HB levels in urine” value [20] was “did not alter”, the serum acetoacetate levels [20] was “increased serum acetoacetate” and the “binding of 14C-labeled acetoacetate” value [21] was “but not to a negative control mutant V600A or to other clinically reported BRAF mutants”.
For `O=C(O)c1cccnc1` [niacin], the serum cholesterol levels ([1]; effect of treatment) was “marginally decreased serum cholesterol levels”, the “serum levels of acetoacetate” value ([1]; effect of treatment) was “reduced serum levels of acetoacetate; also recorded: decrease serum acetoacetate levels” and the “BRAF V600E-MEK1 binding in tumors” value [2] was “decreased BRAF V600E-MEK1 association”. For the same compound, the “cell proliferation rates in tumors” value [2] was “reduced cell proliferation rates”, the “phosphorylation of MEK1 and ERK1/2 in tumors” value [2] was “decreased phosphorylation of MEK1 and ERK1/2” and the “xenograft tumor growth” value [2] was “effectively attenuated tumor growth potential; also recorded: reduce BRAF V600E tumor growth”.
For `C[C@@H](O)CC(=O)O` [3HB, D-β-hydroxybutyrate], the “serum levels of 3HB (β-hydroxybutyrate)” value ([1]; effect of treatment) was “increased serum levels of β-hydroxybutyrate”, the “BRAF-MEK1 binding in tumors” value [16] was “did not affect” and the “cell proliferation rates in tumors” value [16] was “did not affect”. For the same compound, the “phosphorylation of MEK1 and ERK1/2 (MEK-ERK activation) in tumors” value [16] was “did not affect”, the “xenograft tumor growth” value [16] was “had no effect on growth rates or masses of tumor xenografts” and the “acetoacetate or 3HB levels in urine” value [20] was “did not alter”. The “serum 3HB levels” value [20] was “increased 3HB”.
With `CC(C)=O` [acetone] the “binding in thermal melt shift assay” value [3] was “did not bind”, the “promotion of association between purified BRAF V600E and MEK1” value [4] was “did not” and the “BRAF V600E-MEK1 binding” value [5] was “did not affect”. The cell proliferation rates [5] was “did not affect” and the “phosphorylation levels of MEK1 or ERK1/2” value [5] was “did not affect”.
